Broadly, the Ki is the equilibrium dissociation constant of an inhibitor or competing ligand from its target. A high value points to lower affinity.

The record followed here is US7989457B2 (Eli Lilly and Company, priority 2004, dated 2011).

The test addresses cloned human glucagon receptor (Homo sapiens, UniProt P47871). Put plainly: Glucagon Receptor (hGlucR) Binding Assay.

Each structure is given as a SMILES string.

cloned human glucagon receptor, sequence (P47871 26-477): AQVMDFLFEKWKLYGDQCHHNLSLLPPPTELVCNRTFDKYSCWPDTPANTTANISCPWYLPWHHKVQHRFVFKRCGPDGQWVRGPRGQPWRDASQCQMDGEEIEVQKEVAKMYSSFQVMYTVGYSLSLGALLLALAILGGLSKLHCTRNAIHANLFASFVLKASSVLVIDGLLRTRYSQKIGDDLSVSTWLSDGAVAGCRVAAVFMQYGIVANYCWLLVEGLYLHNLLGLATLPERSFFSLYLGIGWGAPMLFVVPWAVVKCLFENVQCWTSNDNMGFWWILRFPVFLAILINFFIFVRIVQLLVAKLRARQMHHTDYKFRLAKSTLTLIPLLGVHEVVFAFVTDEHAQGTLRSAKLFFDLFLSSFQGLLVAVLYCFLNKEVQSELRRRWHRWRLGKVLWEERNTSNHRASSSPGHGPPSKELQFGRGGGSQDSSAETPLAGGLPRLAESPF
Procedure: This plasmid DNA was transfected into 293 HEK cells and selec ted with 200 ug/mL Hygromycin.
Crude plasma membranes are prepared using cells from suspension culture. The cells are lysed on ice in hypotonic buffer containing 25 mM Tris HCL, pH 7.5, 1 mM MgCl2, DNAsel, 20 u/mL, and Roche Complete Inhibitors-without EDTA. The cell suspension is homogenized with a glass dounce homogenizer using a Teflon pestle for 25 strokes. The homogenate is centrifuged at 4° C. at 1800×g for 15 mins. The supernate is collected and the pellet is resuspended in hypotonic buffer and rehomogenized. The mixture is centrifuged at 1800×g for 15 mins. The second supernate is combined with the first supernate. The combined supernates are recentrifuged at 1800×g for 15 mins to clarify. The clarified supernate is transferred to high speed tubes and centrifuged at 25000×g for 30 minutes at 4° C. The membrane pellet is resuspended in homogenization buffer and stored as frozen aliquots at −80° C. freezer until needed.
The specific activity is 2200 Ci/mmol.
The binding buffer contains 25 mM Hepes, pH 7.4, 2.5 mM CaCl2, 1 mM MgCl2, 0.1% fatty acid free BSA, (ICN), 0.003% tween-20, and Roche Complete Inhibitors without EDTA. […] Test compounds are dissolved in DMSO and serially diluted in DMSO. […] Plates are read with a MicroBeta after 14 hours of settling time at room temp. […]

Regarding `CC(Oc1ccc(C(=O)NCCC(=O)O)cc1)c1ccc(-c2ccc(C(F)(F)F)cc2)nc1` (racemic), the inhibition constant Ki was found to be 801 nM.
In turn, `CCC(COc1ccc(C(=O)NCCC(=O)O)cc1)c1ccc(-c2ccc(C(F)(F)F)cc2)cc1` (racemic) gave a Ki of 951 nM.
